In patent US20220323532A1, “COMPOSITIONS COMPRISING PLANT-DERIVED EXOSOME-LIKE NANOVESICLES OR EXOSOMES AND METHODS OF USE THEREOF” (priority 2021, published 2022):
Like-named read-outs stand apart in the source and are kept apart here.

Legend:
skin of human subjects [1] = test: Primary skin irritation evaluation, single 48 hour patch; type: in vivo; settings: single application, patch 48 hours; 55 subjects; positive control
Method: Patches remain in place for 48 hours. […] Trained skin grading laboratory personnel removed the patch and evaluated the test sites.
Whenever feasible, the same individual does the scoring of all the subjects throughout the study and is blinded to the treatment assignments and any previous scores. • 0 no reaction (negative) • 1 erythema throughout at least ¾ of patch area • 2 erythema and induration throughout at least ¾ of patch area • 3 erythema, induration and vesicles • 4 erythema, induration and bullae • D Site discontinued • Dc Subject discontinued • DcI Subject discontinued per Investigator

skin of human subjects [2] = settings: repeat insult patch test; positive control
Description: To determine the irritation and sensitization (contact allergy) potential of a test material (high growth serum comprising ashwagandha exosomes/ELNs 1×10^9 or 1×10^10 after repeated application to the skin of human subjects. […]
This procedure was repeated until a series of nine (9) consecutive, 24-hour exposures had been made three (3) times a week for three (3) consecutive weeks. Prior to each reapplication, the test sites evaluated by trained laboratory personnel. […] Test sites were evaluated by trained laboratory personnel 48 and 96 hours after application. In the event of an adverse reaction, the area of erythema and edema were measured. […] Subjects were instructed to report any delayed reactions that might occur after the final reading. […]

CCCCCCCCCCCCOS(=O)(=O)[O-].[Na+] [2.0% Sodium Lauryl Sulfate Solution, Sodium Lauryl Sulfate]
subjects with a Grade 1 reaction (skin of human subjects [1]): 6 subjects
subjects with a Grade 1 reaction (skin of human subjects [2]): 6 subjects
